Assays:
KRAS G12D/RAF1 = target: T1, KRAS G12D/RAF1 (Homo sapiens, UniProt P01116, G12D); assay: Protein-protein interaction (PPI) HTRF assay KRAS G12D/RAF1; assay type: binding; details: KRAS G12D/RAF1, GppNHp-loaded KRAS; 30 minutes pre-incubation
T1 construct: KRAS (1-169) proteins were expressed in E. coli at 18° C; His6-MBP (N, cleaved yes); made in house; host or cells: E. coli
Method in brief: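 Biotinylated GppNHp-loaded RAS (1-169) on streptavidin-d2 acceptor and His-RAF1 RBD (52-131) on anti-His Tb donor, each prepared at 16 nM in pH 7.5 Tris buffer. Compound preincubated with RAS 30 min, then RAF1 added for 1 h at room temperature. IC50 from HTRF 665/615 ratio, normalized to no compound (0%) and untagged RAF1 (100%).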

[1] = target: T2, GST-tagged KRAS G12D (2-169) (Homo sapiens, UniProt P01116, G12D); assay: Nucleotide exchange assay (NEA), HTRF of SOS-mediated GTP-DY-647P1 binding; assay type: biochemical; details: 5 nM GST-KRAS G12D, 20 nM SOScat, 150 nM GTP; compound 1 h at RT
T2 construct: GST-tagged KRAS^G12D (2-169, Reaction Biology, MSC-11-539); purchased Reaction Biology MSC-11-539 (KRAS G12D); MSC-11-502 (SOS1cat)
Method in brief: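 SOS1cat (564-1049)-driven loading of GTP-DY-647P1 onto KRAS G12D, read by HTRF with anti-GST Tb cryptate donor; compound preincubated with KRAS 1 h at RT. Final 5 nM KRAS, 20 nM SOScat, 150 nM GTP, pH 7.3 HEPES buffer; read up to 90 min at RT. Blanked to no-SOS1; 4-parameter fit of % inhibition.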

T1 sequence (P01116 1-169 isoform P01116-2 G12D): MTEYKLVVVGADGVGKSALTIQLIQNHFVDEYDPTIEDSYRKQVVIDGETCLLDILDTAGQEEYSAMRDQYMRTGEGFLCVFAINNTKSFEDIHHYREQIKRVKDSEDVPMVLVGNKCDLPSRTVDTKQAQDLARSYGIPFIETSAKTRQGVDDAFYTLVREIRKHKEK
T2 sequence (P01116 2-169 isoform P01116-2 G12D): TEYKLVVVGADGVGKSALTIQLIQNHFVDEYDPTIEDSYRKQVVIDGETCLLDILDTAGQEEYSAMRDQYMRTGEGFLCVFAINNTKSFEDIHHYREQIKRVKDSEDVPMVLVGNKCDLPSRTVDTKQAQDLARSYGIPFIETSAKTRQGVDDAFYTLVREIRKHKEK

SMILES	IC50 (KRAS G12D/RAF1)	IC50 [1]
CN(C)C(=O)c1cc2n(n1)CCCN(c1nc(OC[C@@]34CCCN3C[C@H](F)C4)nc3c1CN(C)[C@@]1(CCCc4ccc(O)cc41)C3)C2 [Compound 39A, 5-[(7S)-2-[[(2R,8S)-2-fluoro-1,2,3,5,6,7-hexahydropyrrolizin-8-yl]methoxy]-7′-hydroxy-6-methyl-spiro[5,8-dihydropyrido[4,3-d]pyrimidine-7,1′-tetralin]-4-yl]-N,N-dimethyl-4,6,7,8-tetrahydropyrazolo[1,5-a][1,4]diazepine-2-carboxamide]	10 to 100 µM	< 10 nM
Cc1c(C(=O)N(C)C)nn2c1CN(c1nc(OC[C@@]34CCCN3C[C@H](F)C4)nc3c1CO[C@@]1(CCc4c(Cl)cccc41)C3)CCC2 [Compound 42, 5-[(7S)-4′-chloro-2-[[(2R,8S)-2-fluoro-1,2,3,5,6,7-hexahydropyrrolizin-8-yl]methoxy]spiro[5,8-dihydropyrano[4,3-d]pyrimidine-7,1′-indane]-4-yl]-N,N,3-trimethyl-4,6,7,8-tetrahydropyrazolo[1,5-a][1,4]diazepine-2-carboxamide]	10 to 100 µM	< 10 nM
O=C(c1nn2c(c1Cl)CN(c1nc(OC[C@@]34CCCN3C[C@H](F)C4)nc3c1CO[C@@]1(CCc4c(Cl)cccc41)C3)CCC2)N1CCOCC1 [Compound 45, [3-chloro-5-[(7S)-4′-chloro-2-[[(2R,8S)-2-fluoro-1,2,3,5,6,7-hexahydropyrrolizin-8-yl]methoxy]spiro[5,8-dihydropyrano[4,3-d]pyrimidine-7,1′-indane]-4-yl]-4,6,7,8-tetrahydropyrazolo[1,5-a][1,4]diazepin-2-yl]-morpholino-methanone]	10 to 100 µM	< 10 nM
C[C@@]1(NC#N)CCCN(c2nc(OC[C@@]34CCCN3C[C@H](F)C4)nc3c2COC2(CCc4c(Cl)cccc42)C3)C1 (stereo partly drawn) [Compound 46A, [(3R)-1-[(7*)-4′-chloro-2-[[(2R,8S)-2-fluoro-1,2,3,5,6,7-hexahydropyrrolizin-8-yl]methoxy]spiro[5,8-dihydropyrano[4,3-d]pyrimidine-7,1′-indane]-4-yl]-3-methyl-3-piperidyl]cyanamide; 2,2,2-trifluoroacetic acid]	10 to 100 µM	100 to 1000 nM
CN(C)C(=O)c1nn2c(c1Cl)CN(c1nc(OCC3(CN4CCOCC4)CC3)nc3c1CO[C@@]1(CCc4c(Cl)cccc41)C3)CCC2 [Compound 47, 3-chloro-5-[(7S)-4′-chloro-2-[[1-(morpholinomethyl)cyclopropyl]methoxy]spiro[5,8-dihydropyrano[4,3-d]pyrimidine-7,1′-indane]-4-yl]-N,N-dimethyl-4,6,7,8-tetrahydropyrazolo[1,5-a][1,4]diazepine-2-carboxamide]	> 100 µM	< 10 nM
O=C(c1nn2c(c1Cl)CN(c1nc(OC[C@@]34CCCN3C[C@H](F)C4)nc3c1CO[C@@]1(CCc4c(Cl)cccc41)C3)CCC2)N1CCNCC1 [Compound 49, [3-chloro-5-[(7S)-4′-chloro-2-[[(2R,8S)-2-fluoro-1,2,3,5,6,7-hexahydropyrrolizin-8-yl]methoxy]spiro[5,8-dihydropyrano[4,3-d]pyrimidine-7,1′-indane]-4-yl]-4,6,7,8-tetrahydropyrazolo[1,5-a][1,4]diazepin-2-yl]-piperazin-1-yl-methanone]	10 to 100 µM	< 10 nM
CN1CCN(C(=O)c2nn3c(c2Cl)CN(c2nc(OC[C@@]45CCCN4C[C@H](F)C5)nc4c2CO[C@@]2(CCc5c(Cl)cccc52)C4)CCC3)CC1 [Compound 50, [3-chloro-5-[(7S)-4′-chloro-2-[[(2R,8S)-2-fluoro-1,2,3,5,6,7-hexahydropyrrolizin-8-yl]methoxy]spiro[5,8-dihydropyrano[4,3-d]pyrimidine-7,1′-indane]-4-yl]-4,6,7,8-tetrahydropyrazolo[1,5-a][1,4]diazepin-2-yl]-(4-methylpiperazin-1-yl)methanone]	10 to 100 µM	< 10 nM
CN(C)C(=O)c1nn2c(c1Cl)CN(c1nc(OC[C@@]34CCCN3C[C@H](F)C4)nc3c1CN(C)[C@@]1(CCc4ccccc41)C3)CCC2 [Compound 53, 3-chloro-5-[(7S)-2-[[(2R,8S)-2-fluoro-1,2,3,5,6,7-hexahydropyrrolizin-8-yl]methoxy]-6-methyl-spiro[5,8-dihydropyrido[4,3-d]pyrimidine-7,1′-indane]-4-yl]-N,N-dimethyl-4,6,7,8-tetrahydropyrazolo[1,5-a][1,4]diazepine-2-carboxamide]	10 to 100 µM	< 10 nM
CN(C)C(=O)c1nn2c(c1Cl)CN(c1nc(OC[C@@]34CCCN3C[C@H](F)C4)nc3c1CN(C)[C@@]1(CCc4c(Cl)cccc41)C3)CCC2 [Compound 55, 3-chloro-5-((S)-4-chloro-2′-(((2R,7aS)-2-fluorotetrahydro-1H-pyrrolizin-7a(5H)-yl)methoxy)-6′-methyl-2,3,5′,8′-tetrahydro-6′H-spiro[indene-1,7′-pyrido[4,3-d]pyrimidin]-4′-yl)-N,N-dimethyl-5,6,7,8-tetrahydro-4H-pyrazolo[1,5-a][1,4]diazepine-2-carboxamide]	10 to 100 µM	< 10 nM
CN1Cc2c(nc(OC[C@@]34CCCN3C[C@H](F)C4)nc2N2CCC[C@]3(C2)NC(=O)NC3=O)C[C@]12CCc1ccccc12 [Compound 60, (5R)-9-[(7S)-2-[[(2R,8S)-2-fluoro-1,2,3,5,6,7-hexahydropyrrolizin-8-yl]methoxy]-6-methyl-spiro[5,8-dihydropyrido[4,3-d]pyrimidine-7,1′-indane]-4-yl]-1,3,9-triazaspiro[4.5]decane-2,4-dione]	10 to 100 µM	100 to 1000 nM
CN(C)C(=O)c1nn2c(c1Cl)CN(c1nc(OC[C@@]34CCCN3C[C@H](F)C4)nc3c1CN(C)[C@@]1(CCc4c(F)ccc(F)c41)C3)CCC2 [Compound 61, 3-chloro-5-[(7S)-4′,7′-difluoro-2-[[(2R,8S)-2-fluoro-1,2,3,5,6,7-hexahydropyrrolizin-8-yl]methoxy]-6-methyl-spiro[5,8-dihydropyrido[4,3-d]pyrimidine-7,1′-indane]-4-yl]-N,N-dimethyl-4,6,7,8-tetrahydropyrazolo[1,5-a][1,4]diazepine-2-carboxamide]	10 to 100 µM	< 10 nM
CN(C)C(=O)c1nn2c(c1Cl)CN(c1nc(OC[C@@]34CCCN3C[C@H](F)C4)nc3c1CN(C)[C@@]1(CCc4cccc(F)c41)C3)CCC2 [Compound 63, 3-chloro-5-[(7S)-7′-fluoro-2-[[(2R,8S)-2-fluoro-1,2,3,5,6,7-hexahydropyrrolizin-8-yl]methoxy]-6-methyl-spiro[5,8-dihydropyrido[4,3-d]pyrimidine-7,1′-indane]-4-yl]-N,N-dimethyl-4,6,7,8-tetrahydropyrazolo[1,5-a][1,4]diazepine-2-carboxamide]	10 to 100 µM	< 10 nM
CN(C)C(=O)c1nn2c(c1Cl)CN(c1nc(OC[C@@]34CCCN3C[C@H](F)C4)nc3c1CN(C)[C@@]1(CCCc4ccccc41)C3)CCC2 [Compound 64, 3-chloro-5-[(7S)-2-[[(2R,8S)-2-fluoro-1,2,3,5,6,7-hexahydropyrrolizin-8-yl]methoxy]-6-methyl-spiro[5,8-dihydropyrido[4,3-d]pyrimidine-7,1′-tetralin]-4-yl]-N,N-dimethyl-4,6,7,8-tetrahydropyrazolo[1,5-a][1,4]diazepine-2-carboxamide]	10 to 100 µM	< 10 nM

Source: patent publication US11912723B2, “KRAS modulators and uses thereof” (Quanta Therapeutics, Inc., priority 2022, dated 2024)
